Data on 34 molecules can be found in patent US20260365628A1, “SUBSTITUTED 3,4-DIHYDROQUINOLINONE INHIBITORS OF TSHR” (Septerna, Inc., priority 2022, published 2026).

For this assay, the target named is T1, hTSHR (Homo sapiens, UniProt P16473).
T1 construct: expressed in transfected cells
The assay is described as follows: hTSHR TR-FRET cAMP Assay (inhibition of M22-stimulated cAMP production). The assay is classed as cell-based. Particulars: Expi293F Inducible cells stably expressing hTSHR; cAMP HTRF; stimulated with EC80 of anti-TSHR antibody M22; 15 min compound preincubation, 30 min at 37° C.; read-out: Activity (IC50 bins). The procedure, abridged: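 Readout was a cAMP HTRF ratio of 655/620 nm after lysis, scaled between the EC80 M22 signal (0% inhibition) and no-agonist vehicle (100%). Frozen induced Expi293F-hTSHR cells saw test compounds (0.5% DMSO) for 15 min at 37 °C before 30 min of M22 stimulation at EC80.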
For orientation: In TR-FRET formats the signal depends on donor and acceptor labels being close together.

T1 sequence (P16473 21-764): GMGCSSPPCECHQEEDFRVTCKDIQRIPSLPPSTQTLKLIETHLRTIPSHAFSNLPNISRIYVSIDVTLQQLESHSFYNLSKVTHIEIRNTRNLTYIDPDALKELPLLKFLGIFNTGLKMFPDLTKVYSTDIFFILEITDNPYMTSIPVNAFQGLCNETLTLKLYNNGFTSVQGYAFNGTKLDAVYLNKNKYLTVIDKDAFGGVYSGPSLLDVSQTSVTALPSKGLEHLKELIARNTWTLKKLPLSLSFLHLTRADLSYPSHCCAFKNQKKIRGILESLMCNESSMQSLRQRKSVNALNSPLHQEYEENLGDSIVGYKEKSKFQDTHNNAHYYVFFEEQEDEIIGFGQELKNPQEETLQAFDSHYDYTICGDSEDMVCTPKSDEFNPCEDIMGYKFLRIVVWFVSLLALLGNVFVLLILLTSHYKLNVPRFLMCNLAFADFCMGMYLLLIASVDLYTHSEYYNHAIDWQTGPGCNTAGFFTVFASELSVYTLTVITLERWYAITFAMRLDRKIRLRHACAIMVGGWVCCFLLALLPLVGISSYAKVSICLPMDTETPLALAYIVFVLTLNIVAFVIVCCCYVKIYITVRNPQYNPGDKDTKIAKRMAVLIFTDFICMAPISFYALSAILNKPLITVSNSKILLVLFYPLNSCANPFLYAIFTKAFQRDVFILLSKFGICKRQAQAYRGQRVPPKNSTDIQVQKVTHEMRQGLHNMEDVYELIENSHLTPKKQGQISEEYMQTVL

The IC50 is the concentration that inhibits the measured activity by half. For the molecule `CC1(NC(=O)Nc2ccc3c(c2)ncc(=O)n3Cc2ccccc2)CCC1` [Example 191, 1-(1-benzyl-2-oxo-1,2-dihydroquinoxalin-6-yl)-3-(1-methylcyclobutyl)urea], the IC50 fell in the range of 100 to 1000 nM.

On to `C[C@H]1Oc2cc(NC(=O)NC(C)(C)C)ccc2N(Cc2cccc([C@H](O)C(F)(F)F)c2)C1=O` [Example 175, 1-(tert-butyl)-3-((R)-2-methyl-3-oxo-4-(3-((S)-2,2,2-trifluoro-1-hydroxyethyl)benzyl)-3,4-dihydro-2H-benzo [b][1,4]oxazin-7-yl)urea], for which the IC50 is 100 to 1000 nM. Regarding `CC(C)(C)CC(=O)Nc1ccc2c(c1)CCC(=O)N2Cc1ccccc1` [Example 285, N-(1-benzyl-2-oxo-3,4-dihydroquinolin-6-yl)-3,3-dimethylbutanamide], the IC50 was > 1000 nM. As to `CC(c1cc(C(O)C(F)(F)F)ccc1F)n1c(=O)cnc2cc(NC(=O)NC(C)(C)C)ccc21` (stereo not shown) [Example 375, 1-(tert-butyl)-3-(1-(1-(2-fluoro-5-(2,2,2-trifluoro-1-hydroxyethyl)phenyl)ethyl)-2-oxo-1,2-dihydroquinoxalin-6-yl)urea], the IC50 was > 1000 nM.

`CC(C)(C)NC(=O)Nc1ccc2c(c1)ncc(=O)n2Cc1cccc(CC(F)(F)F)c1` [Example 94, 1-(tert-butyl)-3-(2-oxo-1-(3-(2,2,2-trifluoro-ethyl)benzyl)-1,2-dihydro-quinoxalin-6-yl)urea]: the IC50 was 100 to 1000 nM. The result for `CC1(C)CN(C(=O)Nc2ccc3c(c2)ncc(=O)n3Cc2ccccc2)C1` [Example 192, N-(1-benzyl-2-oxo-1,2-dihydroquinoxalin-6-yl)-3,3-dimethylazetidine-1-carboxamide] reads > 1000 nM. In the case of `CC(C)(C)NC(=O)Nc1ccc2c(c1)CCC(=O)N2Cc1ccccn1` [Example 2, 1-(tert-butyl)-3-(2-oxo-1-(pyridin-2-ylmethyl)-1,2,3,4-tetrahydroquinolin-6-yl)urea], the IC50 is > 1000 nM.

In the case of `CC(c1cc(F)cc(OC(F)(F)F)c1)n1c(=O)cnc2cc(NC(=O)NC(C)(C)C)ccc21` (stereo not shown) [Example 247, 1-(tert-butyl)-3-(1-(1-(3-fluoro-5-(tri-fluoromethoxy)phenyl)ethyl)-2-oxo-1,2-dihydro-quinoxalin-6-yl)urea], the IC50 lay in the range of 100 to 1000 nM. `CC(C)(C)NC(=O)Nc1ccc2c(c1)CCC(=O)N2Cc1cccc(Cl)c1` [Example 6, 1-(tert-butyl)-3-(1-(3-chlorobenzyl)-2-oxo-1,2,3,4-tetrahydroquinolin-6-yl)urea]: the IC50 was < 100 nM. The result for `CC1(C)CCCC1C(=O)Nc1ccc2c(c1)ncc(=O)n2Cc1ccccc1` (stereo not shown) [Example 308, N-(1-benzyl-2-oxo-1,2-dihydroquinoxalin-6-yl)-2,2-dimethylcyclopentane-1-carboxamide] reads 100 to 1000 nM; that for `C[C@H]1Oc2cc(NC(=O)NC3(C(F)(F)F)CCC3)ccc2N(Cc2cccc(C(F)(F)F)n2)C1=O` [Example 232, (R)-1-(2-methyl-3-oxo-4-((6-(trifluoromethyl)pyridin-2-yl)methyl)-3,4-dihydro-2H-benzo[b][1,4]oxazin-7-yl)-3-(1-(trifluoromethyl)cyclobutyl)urea], 100 to 1000 nM; that for `CC(C)(C)NC(=O)Nc1ccc2c(c1)ncc(=O)n2Cc1cccc(CCC(F)(F)F)c1` [Example 92, 1-(tert-butyl)-3-(2-oxo-1-(3-(3,3,3-trifluoro-propyl)benzyl)-1,2-dihydro-quinoxalin-6-yl)urea], 100 to 1000 nM. To `C[C@@H](c1ccccc1)N1C(=O)COc2cc(NC(=O)NC(C)(C)C)ccc21` [Example 35, (S)-1-(tert-butyl)-3-(3-oxo-4-(1-phenylethyl)-3,4-dihydro-2H-benzo[b][1,4]oxazin-7-yl)urea] belongs < 100 nM; to `C[C@H]1Oc2cc(NC(=O)NC(C)(C)C)ccc2N(Cc2ccccc2Cl)C1=O` [Example 178, (R)-1-(tert-butyl)-3-(4-(2-chloro-benzyl)-2-methyl-3-oxo-3,4-dihydro-2H-benzo [b][1,4]oxazin-7-yl)urea], 100 to 1000 nM. `C[C@@H](c1cccc(OC(F)(F)F)c1)n1c(=O)cnc2c(CO)c(NC(=O)NC(C)(C)C)ccc21` [Example 351, (S)-1-(tert-butyl)-3-(5-(hydroxymethyl)-2-oxo-1-(1-(3-(trifluoromethoxy)phenyl)ethyl)-1,2-dihydroquinoxalin-6-yl)urea]: the IC50 is > 1000 nM. To `CC(C)(C)NC(=O)Nc1ccc2c(c1)CCC(=O)N2C1CCOc2ccccc21` (stereo not shown) [Example 298, 1-(tert-butyl)-3-(1-(chroman-4-yl)-2-oxo-1,2,3,4-tetrahydroquinolin-6-yl)urea] belongs > 1000 nM; to `C[C@H]1Oc2cc(NC(=O)NC3(C)COC3)ccc2N([C@@H](C)c2ccccc2)C1=O` [Example 262, 1-((R)-2-methyl-3-oxo-4-((S)-1-phenylethyl)-3,4-dihydro-2H-benzo [b][1,4]oxazin-7-yl)-3-(3-methyl-oxetan-3-yl)urea], > 1000 nM; to `C[C@H]1Oc2cc(NC(=O)NC(C)(C)C)ccc2N(Cc2cccc(C(F)(F)F)c2)C1=O` [Example 81], < 100 nM. The result for `C[C@H]1Oc2cc(NC(=O)NC3CCCCC3)ccc2N(Cc2cccc(C(F)(F)F)n2)C1=O` [Example 228, (R)-1-cyclohexyl-3-(2-methyl-3-oxo-4-((6-(trifluoromethyl)pyridin-2-yl)methyl)-3,4-dihydro-2H-benzo[b][1,4]oxazin-7-yl)urea] reads < 100 nM.

For the molecule `C[C@@H](c1cccc(OC(F)(F)F)c1)n1c(=O)cnc2cc(NC(=O)C3CCCC3)ccc21` [Example 315, (S)—N-(2-oxo-1-(1-(3-(trifluoromethoxy)phenyl)ethyl)-1,2-dihydroquinoxalin-6-yl)cyclopentanecarboxamide], the IC50 lay within 100 to 1000 nM. To `C[C@H]1Oc2cc(NC(=O)NC(C)(C)[C@H]3C[C@@H](O)C3)ccc2N(Cc2ccccc2)C1=O` [Example 238] belongs > 1000 nM; to `C[C@@H](c1ccccc1)n1c(=O)cnc2cc(NC(=O)NC(C)(C)C)c(Cl)cc21` [Example 344, (S)-1-(tert-butyl)-3-(7-chloro-2-oxo-1-(1-phenylethyl)-1,2-dihydroquinoxalin-6-yl)urea], 100 to 1000 nM. With `C[C@@H](c1cccc(OC(F)(F)F)c1)n1c(=O)cnc2cc(NC(=O)NC(C)(C)C)c(F)cc21` [Example 339, (S)-1-(tert-butyl)-3-(7-fluoro-2-oxo-1-(1-(3-(trifluoromethoxy)phenyl)ethyl)-1,2-dihydroquinoxalin-6-yl)urea], the IC50 was 100 to 1000 nM.

`CC(C)(C)NC(=O)Nc1ccc2c(c1C#N)CCC(=O)N2Cc1ccccc1` [Example 279, 1-(1-benzyl-5-cyano-2-oxo-1,2,3,4-tetrahydroquinolin-6-yl)-3-(tert-butyl)urea]: the IC50 is > 1000 nM.

Take `C[C@@H](c1cccc2ccncc12)n1c(=O)cnc2cc(NC(=O)NC(C)(C)C)ccc21` [Example 126, (S)-1-(tert-butyl)-3-(1-(1-(isoquinolin-8-yl)ethyl)-2-oxo-1,2-dihydroquinoxalin-6-yl)urea]: the IC50 was > 1000 nM.

As for `C[C@H]1Oc2cc(NC(=O)NC(C)(C)C)ccc2N(Cc2csc(C(F)(F)F)n2)C1=O` [Example 165, (R)-1-(tert-butyl)-3-(2-methyl-3-oxo-4-((2-(trifluoro-methyl)thiazol-4-yl)methyl)-3,4-dihydro-2H-benzo [b][1,4]oxazin-7-yl)urea], the IC50 was 100 to 1000 nM. The result for `CC(c1cccc(OC(F)(F)F)c1F)n1c(=O)cnc2cc(NC(=O)NC(C)(C)C)ccc21` (stereo not shown) [Example 312, 1-(tert-butyl)-3-(1-(1-(2-fluoro-3-(trifluoromethoxy)phenyl)ethyl)-2-oxo-1,2-dihydroquinoxalin-6-yl)urea] reads 100 to 1000 nM. Consider `C[C@H]1Oc2cc(NC(=O)NC(C)(C)C)ccc2N(Cc2ccnc(C(F)(F)F)n2)C1=O` [Example 167, (R)-1-(tert-butyl)-3-(2-methyl-3-oxo-4-((2-(trifluoro-methyl)pyrimidin-4-yl)methyl)-3,4-dihydro-2H-benzo [b][1,4]oxazin-7-yl)urea], for which the IC50 was 100 to 1000 nM. Consider `C[C@H]1Oc2cc(NC(=O)NC(C)(C)C)ccc2N(Cc2cccc(C(O)C(F)(F)F)c2)C1=O` (stereo partly drawn) [Example 172, 1-(tert-butyl)-3-((2R)-2-methyl-3-oxo-4-(3-(2,2,2-trifluoro-1-hydroxy-ethyl)benzyl)-3,4-dihydro-2H-benzo [b][1,4]oxazin-7-yl)urea], for which the IC50 was < 100 nM. To `C[C@H]1Oc2cc(NC(=O)NC3(C)CCCC3)ccc2N([C@@H](C)c2ccccc2)C1=O` [Example 256, 1-((R)-2-methyl-3-oxo-4-((S)-1-phenyl-ethyl)-3,4-dihydro-2H-benzo[b][1,4]oxazin-7-yl)-3-(1-methylcyclopentyl)-urea] belongs < 100 nM; to `C[C@H]1Oc2c(cc(F)c(NC(=O)NC(C)(C)C)c2F)N(Cc2cccc(C(F)F)c2)C1=O` [Example 336, (R)-1-(tert-butyl)-3-(4-(3-(difluoromethyl)benzyl)-6,8-difluoro-2-methyl-3-oxo-3,4-dihydro-2H-benzo[b][1,4]oxazin-7-yl)urea], < 100 nM; to `CC(c1cc(C(F)(F)F)ccn1)n1c(=O)cnc2cc(NC(=O)NC3(C)CCC3)ccc21` (stereo not shown) [Example 337, 1-(1-methylcyclobutyl)-3-(2-oxo-1-(1-(4-(trifluoromethyl)pyridin-2-yl)ethyl)-1,2-dihydroquinoxalin-6-yl)urea], 100 to 1000 nM.

For `C[C@@H](c1cccc(CCOC(F)(F)F)c1)n1c(=O)cnc2cc(NC(=O)NC(C)(C)C)ccc21` [Example 110, (S)-1-(tert-butyl)-3-(2-oxo-1-(1-(3-(2-(tri-fluoromethoxy)ethyl)phenyl)ethyl)-1,2-dihydroquinoxalin-6-yl)urea], the IC50 is 100 to 1000 nM. In the case of `CC(C)(C)NC(=O)Nc1cc2c(cc1Cl)N(Cc1ccccc1)C(=O)CC2` [Example 66, 1-(1-benzyl-7-chloro-2-oxo-3,4-dihydroquinolin-6-yl)-3-tert-butylurea], the IC50 is 100 to 1000 nM.
